# Key:
# [1] = test system: murine syngeneic lymphoma model A20; details: mouse, in vivo, po, 50 mg/kg
# Protocol: (§1) KLN205) or three (CT26 and MC38 study 1) or only one (MC38 study 2) different combination schedules were tested:
# (§2) The oral application volume was 10 ml/kg and the intravenous application volume 5 ml/kg. The time interval between two applications per day was 6-7 h. The tumor size and the body weight were determined three times weekly. Changes in the body weight were a measure of treatment-related toxicity (>10%=critical, stop of treatment until recovery, >20%=toxic, termination). The tumor volume was detected by means of an electronic caliper gauge [0.5×length in mm×(width in mm)^2]. Animals for which the tumor volume exceeded 2000 mm^3 (or for which the mean tumor volume of the group exceeds 2000 mm^3) were euthanized. In vivo anti-tumor efficacy is presented as T/C ratio (Treatment/Control) calculated with tumor volumes at day of control group termination by the formula [(tumor volume of treatment group at day x)−(tumor volume of treatment group at day before first treatment)]/[(tumor volume control group at day x)−(tumor volume of control group at day before first treatment)]. […] Statistical analysis was assessed using SigmaStat software. A one-way analysis of variance was performed and differences to the control were compared by a pair-wise comparison procedure (Dunn's method).
# [2] = test system: murine syngeneic lung carcinoma model KLN205; details: mouse, in vivo
# Protocol: as §1, §2
# [3] = test system: murine syngeneic colon carcinoma model CT26; details: mouse, in vivo, po, 50 mg/kg
# Protocol: as §1, §2
compound,measurement,setting,value
"C[C@@H]1COCCN1c1cc(-c2ccnn2C)c2ccnc(-c3ccn[nH]3)c2n1 [Compound A, 2-[(3R)-3-methylmorpholin-4-yl]-4-(1-methyl-1H-pyrazol-5-yl)-8-(1H-pyrazol-5-yl)-1,7-naphthyridine]",Max. weight loss (%),[1],−2%
same,Max. weight loss (%),[2],−19 (d9) %
same,body weight loss (in words),[2],critical body weight loss
same,Max. weight loss (%),[3],−1%

# From US11690911B2, “Combination of ATR kinase inhibitors and PD-1/PD-L1 inhibitors” (Bayer Pharma Aktiengesellschaft, priority 2017, dated 2023)
